In ChEMBL document CHEMBL1201862, “PubChem BioAssay data set” (2004):
Activity calls are given as the source filed them.

How the values were obtained:
[1] = HepG2 cell cytotoxicity, dose response, cytotoxicity control, dry powder samples (AID 720568); format: functional, cell-based
[2] = ARNT/TACC3 interaction disruptors, potency, confirmation, biochemical, AlphaScreen, cherry-picked samples (AID 651703); format: functional, Homo sapiens;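 note: His-tagged ARNT PAS-B domain paired with GST-TACC3 E629A dimer coactivator fragment; potency of inhibitors that break up the complex and lower AlphaScreen signal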
[3] = target: T1, Protein RecA (Mycobacterium tuberculosis, UniProt P9WHJ3); assay: Fluorescence Cell-Free Homogeneous Dose Retest to Identify Inhibitors of RecA-Intein Splicing Activity. [Related pubchem assays (depositor defined):AID2097, AID2223, AID489010, AID492950]; format: functional
T1 sequence (P9WHJ3 whole entry): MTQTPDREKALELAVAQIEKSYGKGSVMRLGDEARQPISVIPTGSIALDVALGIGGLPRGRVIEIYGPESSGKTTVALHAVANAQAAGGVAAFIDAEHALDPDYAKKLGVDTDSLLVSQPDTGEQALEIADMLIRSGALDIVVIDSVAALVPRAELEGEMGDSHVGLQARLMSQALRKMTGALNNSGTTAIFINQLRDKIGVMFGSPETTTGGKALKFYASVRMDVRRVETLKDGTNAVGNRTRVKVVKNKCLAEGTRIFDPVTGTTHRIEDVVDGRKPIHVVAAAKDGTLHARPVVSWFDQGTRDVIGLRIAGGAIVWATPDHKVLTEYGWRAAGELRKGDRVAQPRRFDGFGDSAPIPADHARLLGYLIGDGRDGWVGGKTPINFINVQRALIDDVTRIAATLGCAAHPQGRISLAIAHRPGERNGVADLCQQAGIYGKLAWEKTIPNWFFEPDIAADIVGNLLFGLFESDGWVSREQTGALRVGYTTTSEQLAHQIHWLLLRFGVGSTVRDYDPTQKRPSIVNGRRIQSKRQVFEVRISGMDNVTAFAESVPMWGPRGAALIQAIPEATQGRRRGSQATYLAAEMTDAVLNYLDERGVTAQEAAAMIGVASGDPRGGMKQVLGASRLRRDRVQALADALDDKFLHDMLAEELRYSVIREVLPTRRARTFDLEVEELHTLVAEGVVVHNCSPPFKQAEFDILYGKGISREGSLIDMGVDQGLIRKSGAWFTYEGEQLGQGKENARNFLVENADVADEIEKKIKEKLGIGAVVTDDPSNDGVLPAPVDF

[4] = C. albicans growth with fluconazole, confirmation, fluorescence, retest (AID 2467); format: functional, cell-based
[5] = target: T2, Sentrin-specific protease 7 (Homo sapiens, UniProt Q9BQF6); assay: SENP7 protease inhibitors, SAR follow-up, biochemical, luminescence (AID 504497); format: functional
T2 sequence (Q9BQF6 whole entry): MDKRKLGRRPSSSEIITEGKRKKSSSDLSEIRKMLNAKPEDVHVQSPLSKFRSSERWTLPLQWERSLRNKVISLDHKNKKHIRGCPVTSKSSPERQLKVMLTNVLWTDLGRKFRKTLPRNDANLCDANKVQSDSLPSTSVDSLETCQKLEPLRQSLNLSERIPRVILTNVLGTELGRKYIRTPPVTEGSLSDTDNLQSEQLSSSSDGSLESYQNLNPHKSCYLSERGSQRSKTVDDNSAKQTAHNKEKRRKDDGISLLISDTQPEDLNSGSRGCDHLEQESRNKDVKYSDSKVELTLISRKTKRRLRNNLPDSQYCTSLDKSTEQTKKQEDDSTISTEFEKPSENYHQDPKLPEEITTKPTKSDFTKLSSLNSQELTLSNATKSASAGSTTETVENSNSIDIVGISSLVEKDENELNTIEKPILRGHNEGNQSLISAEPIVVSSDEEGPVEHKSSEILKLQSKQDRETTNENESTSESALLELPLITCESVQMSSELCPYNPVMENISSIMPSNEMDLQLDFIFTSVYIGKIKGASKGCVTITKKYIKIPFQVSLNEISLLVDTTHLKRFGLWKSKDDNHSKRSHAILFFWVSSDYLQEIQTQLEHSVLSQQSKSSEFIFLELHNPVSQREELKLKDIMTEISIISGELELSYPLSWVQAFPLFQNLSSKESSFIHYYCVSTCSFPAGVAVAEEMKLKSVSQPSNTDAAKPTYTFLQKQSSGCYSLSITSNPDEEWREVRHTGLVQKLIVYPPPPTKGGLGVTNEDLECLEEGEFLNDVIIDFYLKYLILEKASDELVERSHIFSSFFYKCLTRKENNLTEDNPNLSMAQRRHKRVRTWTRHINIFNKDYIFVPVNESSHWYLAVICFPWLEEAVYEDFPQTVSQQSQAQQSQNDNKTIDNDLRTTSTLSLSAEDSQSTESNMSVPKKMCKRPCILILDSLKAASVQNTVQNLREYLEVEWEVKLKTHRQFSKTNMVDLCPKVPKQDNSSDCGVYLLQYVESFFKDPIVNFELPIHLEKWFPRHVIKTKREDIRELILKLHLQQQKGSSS

[6] = target: T3, Caspase-3 (Homo sapiens, UniProt P42574); assay: Dose-response confirmation of uHTS inhibitor hits of Sentrin-Specific Protease 8 in a Caspase-3 Fluorescence assay.; format: functional
T3 sequence (P42574 whole entry): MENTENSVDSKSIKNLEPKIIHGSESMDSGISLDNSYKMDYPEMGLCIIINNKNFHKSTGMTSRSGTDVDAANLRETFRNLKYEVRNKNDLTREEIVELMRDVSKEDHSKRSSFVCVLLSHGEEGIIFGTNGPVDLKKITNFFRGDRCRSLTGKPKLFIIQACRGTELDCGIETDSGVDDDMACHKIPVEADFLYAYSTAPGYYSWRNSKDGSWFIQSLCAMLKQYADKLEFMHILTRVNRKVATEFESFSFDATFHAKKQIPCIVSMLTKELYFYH

[7] = target: T4, Sentrin-specific protease 8 (Homo sapiens, UniProt Q96LD8); format: functional;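 note: kinetic enzyme assay of SENP8 cleaving a Nedd8 protein substrate, dose-response confirmation of screening hits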
T4 sequence (Q96LD8 whole entry): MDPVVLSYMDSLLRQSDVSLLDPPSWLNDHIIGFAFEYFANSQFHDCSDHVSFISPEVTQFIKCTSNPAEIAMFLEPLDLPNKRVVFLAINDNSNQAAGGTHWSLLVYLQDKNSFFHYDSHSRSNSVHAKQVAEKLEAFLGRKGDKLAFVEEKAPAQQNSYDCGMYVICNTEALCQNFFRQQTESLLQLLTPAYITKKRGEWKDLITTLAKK

[8] = target: Activated CDC42 kinase 1 (Homo sapiens, UniProt Q07912); assay: Navigating the Kinome. Panel member name: ACK1; format: functional
[9] = target: Insulin-like growth factor 1 receptor (Homo sapiens, UniProt P08069); assay: Navigating the Kinome. Panel member name: IGF1R; format: functional
[10] = target: Rho-associated protein kinase 1 (Homo sapiens, UniProt Q13464); format: functional;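 note: measured within a broad kinome-wide panel profiling many kinases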
[11] = target: Activin receptor type-1 (Homo sapiens, UniProt Q04771); assay: Navigating the Kinome. Panel member name: ACVR1; format: functional
Chain of Activin receptor type-1 (Q04771 whole entry): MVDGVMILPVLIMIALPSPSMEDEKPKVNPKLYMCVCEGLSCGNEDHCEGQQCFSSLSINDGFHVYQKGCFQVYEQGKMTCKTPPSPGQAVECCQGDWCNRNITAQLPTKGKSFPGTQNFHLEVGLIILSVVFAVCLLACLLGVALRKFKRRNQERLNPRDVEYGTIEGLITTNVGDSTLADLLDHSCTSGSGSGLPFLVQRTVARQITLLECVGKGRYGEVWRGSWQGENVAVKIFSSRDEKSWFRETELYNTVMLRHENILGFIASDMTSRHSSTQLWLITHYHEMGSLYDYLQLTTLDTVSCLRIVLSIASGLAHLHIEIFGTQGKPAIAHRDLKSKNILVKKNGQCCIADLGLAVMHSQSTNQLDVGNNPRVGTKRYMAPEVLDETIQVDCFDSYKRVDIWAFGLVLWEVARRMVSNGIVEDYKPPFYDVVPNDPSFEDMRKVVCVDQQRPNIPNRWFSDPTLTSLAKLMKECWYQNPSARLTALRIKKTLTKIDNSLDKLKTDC

Chain of Activated CDC42 kinase 1 (Q07912 whole entry): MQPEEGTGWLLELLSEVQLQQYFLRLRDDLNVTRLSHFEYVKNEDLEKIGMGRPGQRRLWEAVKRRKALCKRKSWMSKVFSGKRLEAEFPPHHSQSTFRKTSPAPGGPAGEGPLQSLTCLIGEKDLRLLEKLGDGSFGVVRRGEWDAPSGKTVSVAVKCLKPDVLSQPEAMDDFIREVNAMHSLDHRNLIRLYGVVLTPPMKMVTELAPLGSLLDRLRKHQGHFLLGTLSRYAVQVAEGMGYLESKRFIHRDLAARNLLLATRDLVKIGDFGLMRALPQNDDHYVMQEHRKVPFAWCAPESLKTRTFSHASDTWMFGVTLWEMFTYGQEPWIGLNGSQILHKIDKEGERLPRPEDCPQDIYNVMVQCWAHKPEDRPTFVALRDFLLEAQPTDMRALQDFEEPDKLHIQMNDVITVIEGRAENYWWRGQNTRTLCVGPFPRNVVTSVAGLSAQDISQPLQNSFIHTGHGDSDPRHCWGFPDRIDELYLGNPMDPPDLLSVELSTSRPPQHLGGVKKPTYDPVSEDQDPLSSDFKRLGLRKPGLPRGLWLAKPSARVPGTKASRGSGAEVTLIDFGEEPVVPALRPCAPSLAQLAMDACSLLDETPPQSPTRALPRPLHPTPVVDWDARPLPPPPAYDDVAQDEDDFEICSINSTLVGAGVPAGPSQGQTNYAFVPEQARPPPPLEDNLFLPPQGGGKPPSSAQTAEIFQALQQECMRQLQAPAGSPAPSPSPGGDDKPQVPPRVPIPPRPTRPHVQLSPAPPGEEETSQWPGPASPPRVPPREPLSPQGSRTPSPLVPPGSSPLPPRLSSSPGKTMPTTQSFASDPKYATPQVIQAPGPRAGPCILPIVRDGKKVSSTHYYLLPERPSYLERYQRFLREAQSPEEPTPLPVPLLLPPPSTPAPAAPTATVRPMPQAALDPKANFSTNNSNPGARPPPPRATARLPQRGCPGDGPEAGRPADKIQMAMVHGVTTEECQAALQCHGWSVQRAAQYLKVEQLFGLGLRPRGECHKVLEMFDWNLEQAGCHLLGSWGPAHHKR
Chain of Insulin-like growth factor 1 receptor (P08069 31-736 limits assumed): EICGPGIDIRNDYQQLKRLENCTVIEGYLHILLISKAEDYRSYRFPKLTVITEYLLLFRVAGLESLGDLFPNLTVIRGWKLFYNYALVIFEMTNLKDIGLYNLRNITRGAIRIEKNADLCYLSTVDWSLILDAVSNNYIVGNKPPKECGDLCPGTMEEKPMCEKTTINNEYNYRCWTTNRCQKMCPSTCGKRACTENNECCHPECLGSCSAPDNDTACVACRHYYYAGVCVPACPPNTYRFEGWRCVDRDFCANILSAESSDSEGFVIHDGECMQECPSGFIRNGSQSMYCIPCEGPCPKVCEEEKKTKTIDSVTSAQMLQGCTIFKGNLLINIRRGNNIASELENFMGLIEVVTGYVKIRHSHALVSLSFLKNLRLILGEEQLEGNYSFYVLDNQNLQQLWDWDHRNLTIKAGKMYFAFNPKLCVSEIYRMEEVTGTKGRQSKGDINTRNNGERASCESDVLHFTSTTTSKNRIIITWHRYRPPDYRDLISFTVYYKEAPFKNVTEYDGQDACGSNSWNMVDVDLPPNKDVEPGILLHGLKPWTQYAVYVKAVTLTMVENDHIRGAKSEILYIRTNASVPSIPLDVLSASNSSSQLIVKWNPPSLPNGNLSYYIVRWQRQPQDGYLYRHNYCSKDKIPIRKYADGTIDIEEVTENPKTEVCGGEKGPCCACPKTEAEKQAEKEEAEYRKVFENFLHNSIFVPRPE
Chain of Insulin-like growth factor 1 receptor (P08069 741-1367 limits assumed): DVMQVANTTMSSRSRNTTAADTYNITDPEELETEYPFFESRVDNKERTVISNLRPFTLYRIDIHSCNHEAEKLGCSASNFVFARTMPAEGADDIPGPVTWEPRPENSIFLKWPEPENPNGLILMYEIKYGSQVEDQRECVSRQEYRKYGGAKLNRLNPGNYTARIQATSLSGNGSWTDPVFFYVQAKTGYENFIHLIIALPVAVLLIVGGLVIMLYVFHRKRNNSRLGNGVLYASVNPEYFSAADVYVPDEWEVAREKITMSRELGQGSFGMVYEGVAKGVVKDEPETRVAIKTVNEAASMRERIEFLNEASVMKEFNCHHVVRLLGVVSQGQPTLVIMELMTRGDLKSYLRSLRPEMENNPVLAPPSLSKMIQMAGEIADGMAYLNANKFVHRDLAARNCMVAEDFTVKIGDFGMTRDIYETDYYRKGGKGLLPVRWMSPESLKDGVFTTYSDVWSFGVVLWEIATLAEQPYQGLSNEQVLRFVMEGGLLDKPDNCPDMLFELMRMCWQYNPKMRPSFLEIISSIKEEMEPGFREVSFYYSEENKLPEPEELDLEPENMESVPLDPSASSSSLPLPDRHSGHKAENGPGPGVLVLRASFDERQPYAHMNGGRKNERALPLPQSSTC
Chain of Rho-associated protein kinase 1 (Q13464 whole entry): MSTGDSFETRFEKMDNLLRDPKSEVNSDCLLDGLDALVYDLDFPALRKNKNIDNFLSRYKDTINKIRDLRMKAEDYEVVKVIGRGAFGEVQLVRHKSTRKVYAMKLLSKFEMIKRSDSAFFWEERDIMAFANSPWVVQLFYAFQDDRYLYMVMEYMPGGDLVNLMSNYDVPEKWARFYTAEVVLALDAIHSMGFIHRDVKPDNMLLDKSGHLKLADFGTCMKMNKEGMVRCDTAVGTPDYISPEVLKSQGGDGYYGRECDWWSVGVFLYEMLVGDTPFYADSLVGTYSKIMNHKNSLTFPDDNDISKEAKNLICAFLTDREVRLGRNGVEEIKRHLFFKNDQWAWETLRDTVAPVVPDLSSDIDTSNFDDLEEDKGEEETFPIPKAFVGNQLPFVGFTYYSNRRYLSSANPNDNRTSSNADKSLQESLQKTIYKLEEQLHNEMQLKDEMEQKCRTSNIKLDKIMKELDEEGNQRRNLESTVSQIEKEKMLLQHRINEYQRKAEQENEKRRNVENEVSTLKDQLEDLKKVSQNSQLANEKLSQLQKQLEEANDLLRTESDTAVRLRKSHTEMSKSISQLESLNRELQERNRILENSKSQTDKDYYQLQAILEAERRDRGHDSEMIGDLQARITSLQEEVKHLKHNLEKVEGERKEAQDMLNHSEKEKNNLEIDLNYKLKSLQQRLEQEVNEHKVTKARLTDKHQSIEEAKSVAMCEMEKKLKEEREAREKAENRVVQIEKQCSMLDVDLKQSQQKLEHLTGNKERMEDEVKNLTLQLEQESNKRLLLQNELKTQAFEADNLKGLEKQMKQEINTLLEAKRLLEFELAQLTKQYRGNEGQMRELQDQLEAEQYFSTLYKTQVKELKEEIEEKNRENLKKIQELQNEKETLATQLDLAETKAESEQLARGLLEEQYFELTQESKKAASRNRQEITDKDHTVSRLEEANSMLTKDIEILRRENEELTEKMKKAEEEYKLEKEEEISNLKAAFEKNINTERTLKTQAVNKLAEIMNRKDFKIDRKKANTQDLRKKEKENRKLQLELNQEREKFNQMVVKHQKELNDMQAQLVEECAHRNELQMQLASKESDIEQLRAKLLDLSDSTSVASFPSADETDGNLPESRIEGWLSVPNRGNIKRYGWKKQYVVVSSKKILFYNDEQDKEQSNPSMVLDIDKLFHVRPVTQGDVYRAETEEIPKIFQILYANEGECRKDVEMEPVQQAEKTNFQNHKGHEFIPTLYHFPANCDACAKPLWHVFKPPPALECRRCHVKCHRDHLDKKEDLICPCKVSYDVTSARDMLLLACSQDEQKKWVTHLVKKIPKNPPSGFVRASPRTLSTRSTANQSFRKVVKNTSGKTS

CCN(CC)CCOc1ccc2c(c1)C(=NNC(=O)c1ccccn1)c1cc(OCCN(CC)CC)ccc1-2
AC50 [1]: 6.14 µM (active)
AC50 [2]: 109 µM (active)

O=C(NC1=C(Nc2ccc(F)cc2)C(=O)c2ccccc2C1=O)c1ccc(Cl)cc1
EC50 [3]: 25.9 µM (inconclusive)

O=C(O)c1ccc2c(c1)[C@@H]1C=CC[C@@H]1[C@H](c1ccccn1)N2
EC50 [4]: > 38 µM (not active)

COc1cc2cc(NC(C)=O)cc(NCc3ccccc3)c2cc1OC
IC50 [5]: 67.6 µM (active)

Oc1nc(Nc2ccc(F)cc2)cc2ccccc12
EC50 [3]: 1.21 µM (active)

CN(C)c1cc(N/N=C\c2ccccc2)nc(N(C)C)n1
IC50 [6]: 50.7 µM (active)
IC50 [5]: 16.2 µM (active)
IC50 [7]: 0.661 µM (active)

O=C1Nc2cc(-c3ccc(O)cc3)ccc2C1=Cc1ccc[nH]1
Ki [8]: > 3.98 µM (inactive)
Ki [9]: > 2.51 µM (inactive)
Ki [10]: > 3.98 µM (inactive)
Ki [11]: 3.16 µM (active)

NC(COc1cncc(-c2ccc3c(c2)C(=Cc2ccc[nH]2)C(=O)N3)c1)Cc1ccccc1 (configuration not stated)
Ki [8]: 1.58 µM (active)
Ki [9]: 1 µM (active)
Ki [10]: 0.00398 µM (active)
Ki [11]: 0.794 µM (active)
